# Assay results reported in patent publication US4742049A, “Semisynthetic erythromycin antibiotics” (Abbott Laboratories, priority 1986, dated 1988).
# Read-outs that look alike come from different tables or passages of the source.
# How the values were obtained:
# Strep. pyogenes = assay: antimicrobial spectrum, agar dilution MIC; assay type: cell-based; conditions: Streptococcus pyogenes, BHI agar, 20-24 hours
# Description: (§1) Twelve petri dishes containing successive aqueous dilutions of the test compound mixed with 10 ml of sterilized Brain Heart Infusion agar (Difco 0418-01-5) are prepared. Each plate is inoculated with 1:100 (or 1:10 for slow-growing strains, primarily Micrococcus and Streptococcus) dilutions of up to 32 different microorganisms, using a Steers replicator block. The inoculated plates are incubated at 35°-37° C. for 20-24 hours. In addition, a control plate, using BHI agar containing no test compound, is prepared and incubated at the beginning and end of each test.
# (§2) An additional plate containing a compound having known susceptibility patterns for the organisms being tested and belonging to the same antibiotic class as the test compound is also prepared and incubated as a further control, as well as to provide test-to-test comparability.
# (§3) After incubation, each disk is read. The MIC is defined as the lowest concentration of drug yielding no growth, a slight haze, or sparsely isolated colonies on the inoculum spot as compared to the growth control.
# Staph. epidermidis = assay: antimicrobial spectrum, agar dilution MIC; assay type: cell-based; conditions: Staphylococcus epidermidis, BHI agar, 20-24 hours
# Description: as §1, §2, §3
# Strep. faecium = assay: antimicrobial spectrum, agar dilution MIC; assay type: cell-based; conditions: Enterococcus faecium, BHI agar, 20-24 hours
# Description: as §1, §2, §3
# Staph. aureus = assay: antimicrobial spectrum, agar dilution MIC; assay type: cell-based; conditions: Staphylococcus aureus, BHI agar, 20-24 hours
# Description: as §1, §2, §3
# E. coli = assay: antimicrobial spectrum, agar dilution MIC; assay type: cell-based; conditions: Escherichia coli, BHI agar, 20-24 hours
# Haemophilus influenzae = assay: MIC against strains of Haemophilus influenzae; assay type: cell-based
# Description: (§4) Erythromycin A was used for this purpose.
# (§5) After incubation, each disk is read.
# In the manner of Example 23, the efficacy of compounds of this invention were tested against numerous strains of Haemophilus influenzae.
# Lactobacillus Casei = assay: antimicrobial spectrum, agar dilution MIC; assay type: cell-based; conditions: Lacticaseibacillus casei, ATCC7469, strain ATCC 7469; BHI agar, 20-24 hours
# Acinetobacter SP = assay: antimicrobial spectrum, agar dilution MIC; assay type: cell-based; conditions: strain CMX 669, BHI agar, 20-24 hours
# Pseudomonas aeruginosa = assay: antimicrobial spectrum, agar dilution MIC; assay type: cell-based; conditions: Pseudomonas aeruginosa, BHI agar, 20-24 hours
# Description: as §1, §2, §3
# Strep. bovis = assay: antimicrobial spectrum, agar dilution MIC; assay type: cell-based; conditions: Streptococcus equinus, strain A5169; BHI agar, 20-24 hours
# Description: as §1, §2, §3
# Strep. agalactiae = assay: antimicrobial spectrum, agar dilution MIC; assay type: cell-based; conditions: Streptococcus agalactiae, strain CMX 508; BHI agar, 20-24 hours
# Description: as §1, §2, §3
# Providencia stuartii = assay: antimicrobial spectrum, agar dilution MIC; assay type: cell-based; conditions: strain CMX 640, BHI agar, 20-24 hours
# Description: as §1, §2, §3
# Pseudomonas cepacia = assay: antimicrobial spectrum, agar dilution MIC; assay type: cell-based; conditions: Burkholderia cepacia, strain 2961; BHI agar, 20-24 hours; read-out: MIC
# Description: as §4, §5
# Klebsiella pneumoniae = assay: antimicrobial spectrum, agar dilution MIC; assay type: cell-based; conditions: strain 8045, BHI agar, 20-24 hours
# Ent. aerogenes = assay: antimicrobial spectrum, agar dilution MIC; assay type: cell-based; conditions: Klebsiella aerogenes, ATCC13048, strain ATCC 13048; BHI agar, 20-24 hours; read-out: MIC
# Micrococcus luteus = assay: antimicrobial spectrum, agar dilution MIC; assay type: cell-based; conditions: 20-24 hours
# [1] = system: gut contractions (stomach, duodenum, jejunum); conditions: dog, in vivo, iv, 4 mg/kg
# Description: Compounds of this invention have been tested for gastrointestinal stimulating activity in a dog model at 4 mg/kg intravenously. Contractions in the gut were recorded with surgically implanted strain gauges. […] Ratios were calculated for the stomach, duodenum and jejunum, and a final arithmetic mean index was calculated and reported in Table 1.
# [2] = Haemophilus influenzae, ATCC9006, strain ATCC 9006, read-out: MIC
# [3] = Haemophilus influenzae, ATCC9795, strain ATCC 9795, read-out: MIC
# [4] = Haemophilus influenzae, ATCC10211, strain ATCC 10211, read-out: MIC
# [5] = Haemophilus influenzae, ATCC19418, strain ATCC 19418, read-out: MIC
# [6] = Haemophilus influenzae, strain 504, read-out: MIC
# [7] = Haemophilus influenzae, strain 519A, read-out: MIC
# [8] = Haemophilus influenzae, strain 566A, read-out: MIC
# [9] = Haemophilus influenzae, strain 588A, read-out: MIC
# [10] = Haemophilus influenzae, strain 632A, read-out: MIC
# [11] = Haemophilus influenzae, strain 667A, read-out: MIC
# [12] = Haemophilus influenzae, strain 747C, read-out: MIC
# [13] = Haemophilus influenzae, strain 751, read-out: MIC
# [14] = Haemophilus influenzae, strain 1177, read-out: MIC
# [15] = Haemophilus influenzae, strain 1435, read-out: MIC
# [16] = Haemophilus influenzae, strain 5036B, read-out: MIC
# [17] = Haemophilus influenzae, strain DILL AMP R, read-out: MIC
# [18] = Haemophilus influenzae, strain SOL AMP R, read-out: MIC
# [19] = Haemophilus influenzae, strain SPK AMP R, read-out: MIC
molecule,measurement,setting,value
"CC[C@H]1OC(=O)[C@H](C)[C@@H](O[C@H]2C[C@@](C)(OC)[C@@H](O)[C@H](C)O2)[C@H](C)[C@@H](O[C@@H]2O[C@H](C)C[C@H](N(C)C)[C@H]2O)[C@](C)(OC)C[C@@H](C)C(=O)[C@H](C)[C@H]2N(CCCOCCOC)C(=O)O[C@]12C [Example 1, 11-deoxy-6-O-methylerythromycin A-11,12-(N-methoxyethoxypropyl)cyclic carbamate]",MIC,"Strep. pyogenes; strain 930, read-out: MIC",64 µg/mL
same,MIC,"Strep. pyogenes; strain EES61, read-out: MIC",0.06 µg/mL
same,MIC,"Staph. epidermidis; strain 3519, read-out: MIC",0.06 µg/mL
same,MIC,"Strep. faecium; ATCC8043, strain ATCC 8043, read-out: MIC",0.06 µg/mL
same,MIC,"Staph. aureus; ATCC6538P, strain ATCC 6538P, read-out: MIC",0.06 µg/mL
same,MIC,"Staph. aureus; strain CMX 686B, read-out: MIC",0.12 µg/mL
same,MIC,E. coli; strain JUHL,16 µg/mL
"CC[C@H]1OC(=O)[C@H](C)[C@@H](O[C@H]2C[C@@](C)(OC)[C@@H](O)[C@H](C)O2)[C@H](C)[C@@H](O[C@@H]2O[C@H](C)C[C@H](N(C)C)[C@H]2O)[C@](C)(OC)C[C@@H](C)C(=O)[C@H](C)[C@H]2N(CCCO)C(=O)O[C@]12C [Example 15, 11-deoxy-6-O-methyl erythromycin A 11,12-(N-3-hydroxypropyl)cyclic carbamate]",MIC,Haemophilus influenzae; [2],0.5 µg/mL
same,MIC,Haemophilus influenzae; [3],0.5 µg/mL
same,MIC,Haemophilus influenzae; [4],1 µg/mL
same,MIC,Haemophilus influenzae; [5],1 µg/mL
same,MIC,Haemophilus influenzae; [6],1 µg/mL
same,MIC,Haemophilus influenzae; [7],0.5 µg/mL
same,MIC,Haemophilus influenzae; [8],1 µg/mL
same,MIC,Haemophilus influenzae; [9],1 µg/mL
same,MIC,Haemophilus influenzae; [10],1 µg/mL
same,MIC,Haemophilus influenzae; [11],1 µg/mL
same,MIC,Haemophilus influenzae; [12],0.5 µg/mL
same,MIC,Haemophilus influenzae; [13],1 µg/mL
same,MIC,Haemophilus influenzae; [14],1 µg/mL
same,MIC,Haemophilus influenzae; [15],0.5 µg/mL
same,MIC,Haemophilus influenzae; [16],1 µg/mL
same,MIC,Haemophilus influenzae; [17],0.5 µg/mL
same,MIC,Haemophilus influenzae; [18],0.5 µg/mL
same,MIC,Haemophilus influenzae; [19],1 µg/mL
"11-deoxy-6-O-methyl erythromycin A 11,12-(N-3-hydroxyethyl)cyclic carbamate [Example 16]",MIC,Haemophilus influenzae; strain 504,1 µg/mL
same,MIC,Haemophilus influenzae; strain 519A,.5 µg/mL
same,MIC,Haemophilus influenzae; strain 566A,1 µg/mL
same,MIC,Haemophilus influenzae; strain 588A,.5 µg/mL
same,MIC,Haemophilus influenzae; strain 632A,1 µg/mL
same,MIC,Haemophilus influenzae; strain 667A,1 µg/mL
same,MIC,Haemophilus influenzae; strain 747C,.5 µg/mL
same,MIC,Haemophilus influenzae; strain 751,1 µg/mL
same,MIC,Haemophilus influenzae; strain 1177,1 µg/mL
same,MIC,Haemophilus influenzae; strain 1435,.25 µg/mL
same,MIC,Haemophilus influenzae; strain 5036B,1 µg/mL
same,MIC,Haemophilus influenzae; strain ATCC 9006,.5 µg/mL
same,MIC,Haemophilus influenzae; strain ATCC 9795,.5 µg/mL
same,MIC,Haemophilus influenzae; strain ATCC 10211,1 µg/mL
same,MIC,Haemophilus influenzae; strain ATCC 19418,.5 µg/mL
same,MIC,Haemophilus influenzae; strain DILL AMP R,.5 µg/mL
same,MIC,Haemophilus influenzae; strain SOL AMP R,.5 µg/mL
same,MIC,Haemophilus influenzae; strain SPK AMP R,1 µg/mL
"CC[C@H]1OC(=O)[C@H](C)[C@@H](O[C@H]2C[C@@](C)(OC)[C@@H](O)[C@H](C)O2)[C@H](C)[C@@H](O[C@@H]2O[C@H](C)C[C@H](N(C)C)[C@H]2O)[C@](C)(OC)C[C@@H](C)C(=O)[C@H](C)[C@H]2N(C3CC3)C(=O)O[C@]12C [Example 5, 11-deoxy-6-O-methyl erythromycin A 11,12-(N-cyclopropyl)cyclic carbamate]",MIC,Lactobacillus Casei,0.05 µg/mL
same,MIC,Acinetobacter SP,25 µg/mL
same,MIC,Pseudomonas aeruginosa; strain 5007,> 100 µg/mL
same,MIC,Pseudomonas aeruginosa; strain BMH10,100 µg/mL
same,MIC,Pseudomonas aeruginosa; strain K799/61,6.2 µg/mL
same,MIC,Pseudomonas aeruginosa; strain K799/WT,> 100 µg/mL
same,MIC,Strep. bovis,0.02 µg/mL
same,MIC,Strep. pyogenes; strain 930,> 100 µg/mL
same,MIC,Strep. pyogenes; strain EES61,0.02 µg/mL
same,MIC,Strep. agalactiae,0.02 µg/mL
same,MIC,Staph. epidermidis; strain 3519,0.39 µg/mL
same,MIC,Staph. epidermidis; strain 3519 RARI,0.39 µg/mL
same,MIC,"Strep. faecium; ATCC8043, strain ATCC 8043",0.1 µg/mL
same,MIC,Providencia stuartii,> 100 µg/mL
same,MIC,"Staph. aureus; ATCC6538P, strain ATCC 6538P",0.39 µg/mL
same,MIC,Staph. aureus; strain 45,0.2 µg/mL
same,MIC,Staph. aureus; strain 45 RAR 2,0.39 µg/mL
same,MIC,Staph. aureus; strain A5177,1.56 µg/mL
same,MIC,Staph. aureus; strain CMX 686B,0.39 µg/mL
same,MIC,Pseudomonas cepacia,> 100 µg/mL
same,MIC,Klebsiella pneumoniae,100 µg/mL
same,MIC,Ent. aerogenes,100 µg/mL
same,MIC,E. coli; strain DC-2,100 µg/mL
same,MIC,E. coli; strain H560,25 µg/mL
same,MIC,E. coli; strain JUHL,50 µg/mL
same,MIC,E. coli; strain KNK 437,100 µg/mL
same,MIC,E. coli; strain SS,0.2 µg/mL
same,MIC,"Micrococcus luteus; strain 4698, BHI agar",0.2 µg/mL
same,MIC,"Micrococcus luteus; strain 9341, BHI agar",0.05 µg/mL
"CC[C@H]1OC(=O)[C@H](C)[C@@H](O[C@H]2C[C@@](C)(OC)[C@@H](O)[C@H](C)O2)[C@H](C)[C@@H](O[C@@H]2O[C@H](C)C[C@H](N(C)C)[C@H]2O)[C@](C)(OC)C[C@@H](C)C(=O)[C@H](C)[C@H]2N(CCCN(C)C)C(=O)O[C@]12C [Example 12, 11-deoxy-6-O-methyl erythromycin A 11,12-[N-(3-dimethylamino)propyl]cyclic carbamate]",MIC,Haemophilus influenzae; [2],0.5 µg/mL
same,MIC,Haemophilus influenzae; [3],0.5 µg/mL
same,MIC,Haemophilus influenzae; [4],1 µg/mL
same,MIC,Haemophilus influenzae; [5],1 µg/mL
same,MIC,Haemophilus influenzae; [6],1 µg/mL
same,MIC,Haemophilus influenzae; [7],0.5 µg/mL
same,MIC,Haemophilus influenzae; [8],1 µg/mL
same,MIC,Haemophilus influenzae; [9],0.5 µg/mL
same,MIC,Haemophilus influenzae; [10],0.5 µg/mL
same,MIC,Haemophilus influenzae; [11],0.5 µg/mL
same,MIC,Haemophilus influenzae; [12],0.5 µg/mL
same,MIC,Haemophilus influenzae; [13],0.5 µg/mL
same,MIC,Haemophilus influenzae; [14],0.5 µg/mL
same,MIC,Haemophilus influenzae; [15],0.25 µg/mL
same,MIC,Haemophilus influenzae; [16],1 µg/mL
same,MIC,Haemophilus influenzae; [17],0.5 µg/mL
same,MIC,Haemophilus influenzae; [18],0.5 µg/mL
same,MIC,Haemophilus influenzae; [19],0.5 µg/mL
"CC[C@H]1OC(=O)[C@H](C)[C@@H](O[C@H]2C[C@@](C)(OC)[C@@H](O)[C@H](C)O2)[C@H](C)[C@@H](O[C@@H]2O[C@H](C)C[C@H](N(C)C)[C@H]2O)[C@](C)(O)C[C@@H](C)C(=O)[C@H](C)[C@H]2NC(=O)O[C@@]21C [Example 18, 11-deoxyerythromycin A 11,12-cyclic carbamate]",Gastrointestinal Motility Index,[1],3.60
"CC[C@H]1OC(=O)[C@H](C)[C@@H](O[C@H]2C[C@@](C)(OC)[C@@H](O)[C@H](C)O2)[C@H](C)[C@@H](O[C@@H]2O[C@H](C)C[C@H](N(C)C)[C@H]2O)[C@](C)(O)C[C@@H](C)C(=O)[C@H](C)[C@H]2N(C)C(=O)O[C@]12C [Example 19, 11-deoxyerythromycin A 11,12-(N-methyl)cyclic carbamate]",Gastrointestinal Motility Index,[1],5.83
